# From patent publication US20050282818A1, “Ubiquitin ligase inhibitors” (Rigel Pharmaceuticals, Inc., priority 2004, published 2005)
# Key:
# [1] = tested on: ICAM-1 expression in A549 cells; assay: ICAM assay (IL-1 induced ICAM-1/CD54 expression in A549 cells); assay type: cell-based, human
# How it was run: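 Luminescent immunostaining (anti-CD54, then anti-mouse IgG, 1 h) quantifies ICAM-1 on A549 cells induced 4 h at 37° C by IL-1 (4 μl of 25 ng/ml added). Compound is added 1 h before the cytokine to cells plated overnight at 10,000 per well.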
# [2] = target: APC11/APC2 (Homo sapiens, UniProt Q9NYG5+Q9UJX6); assay: APC-11/APC-2 ligase assay (APC auto ubiquitination); assay type: biochemical; details: APC assay
# How it was run: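 His-tagged APC was captured on nickel plates with human E1 (5 ng/well), UbcH5c (20 ng/well), APC (100 ng/well) and Flag-ubiquitin (100 ng/well) in a Tris pH 7.6 reaction buffer containing 2.5 mM ATP, for 1 hour at room temperature. Read-out was anti-Flag/HRP chemiluminescence. IC50 was set against a DMSO control, typically from 6 or 8 concentrations.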
# APC11/APC2, sequence (Q9NYG5 whole entry): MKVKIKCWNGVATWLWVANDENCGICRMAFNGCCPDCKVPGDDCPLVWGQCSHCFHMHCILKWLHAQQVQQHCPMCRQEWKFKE
# APC11/APC2, sequence (Q9UJX6 whole entry): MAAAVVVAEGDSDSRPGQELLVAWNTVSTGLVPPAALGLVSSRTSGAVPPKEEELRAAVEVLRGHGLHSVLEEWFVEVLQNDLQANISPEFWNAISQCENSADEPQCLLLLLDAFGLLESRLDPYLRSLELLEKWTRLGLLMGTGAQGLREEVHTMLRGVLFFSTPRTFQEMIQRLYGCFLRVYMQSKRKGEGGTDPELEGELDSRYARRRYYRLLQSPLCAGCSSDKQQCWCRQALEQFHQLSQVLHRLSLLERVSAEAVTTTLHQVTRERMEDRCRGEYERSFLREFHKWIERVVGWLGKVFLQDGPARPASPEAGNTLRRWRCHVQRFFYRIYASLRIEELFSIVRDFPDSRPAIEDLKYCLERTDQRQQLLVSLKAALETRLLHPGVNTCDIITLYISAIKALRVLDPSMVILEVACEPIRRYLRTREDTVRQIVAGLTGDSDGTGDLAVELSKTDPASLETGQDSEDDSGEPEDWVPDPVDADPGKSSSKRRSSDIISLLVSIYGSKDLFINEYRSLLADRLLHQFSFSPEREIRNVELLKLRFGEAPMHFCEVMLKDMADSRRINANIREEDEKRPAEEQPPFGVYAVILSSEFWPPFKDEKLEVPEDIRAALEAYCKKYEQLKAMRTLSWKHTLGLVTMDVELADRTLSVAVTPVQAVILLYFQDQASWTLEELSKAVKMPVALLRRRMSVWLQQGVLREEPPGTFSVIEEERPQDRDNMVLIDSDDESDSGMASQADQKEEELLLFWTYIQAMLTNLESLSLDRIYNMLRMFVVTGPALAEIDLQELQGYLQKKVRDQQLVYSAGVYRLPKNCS
SMILES,"IC50 ([1]; Homo sapiens, A549, ICAM assay) [µM]",IC50 [2] [µM],IC50 ([1]; ICAM assay) [µM]
"O=[N+]([O-])c1ccc(Sc2nc3ccccc3s2)c2nonc12 [compound 158, 4-(1,3-benzothiazol-2-ylthio)-7-nitro-2,1,3-benzoxadiazole]",≥ 20,1 to 20,
"O=S(=O)(c1c(Cl)ccc2nonc12)N1CCN(c2ncc(C(F)(F)F)cc2Cl)CC1 [compound 179, 5-chloro-4-({4-[3-chloro-5-(trifluoromethyl)pyridin-2-yl]piperazin-1-yl}sulfonyl)-2,1,3-benzoxadiazole]",≥ 20,1 to 20,
"O=[N+]([O-])c1ccc(-c2cccc(C(F)(F)F)c2)c2nonc12 [compound 309, 4-Nitro-7-[3-(trifluoromethyl)phenyl]-2,1,3-benzoxadiazole]",1 to 20,1 to 20,
"Cc1cccc(-c2ccc([N+](=O)[O-])c3nonc23)c1 [compound 310, 4-(3-Methylphenyl)-7-nitro-2,1,3-benzoxadiazole]",1 to 20,1 to 20,
"CC(C)(C)c1ccc(-c2ccc([N+](=O)[O-])c3nonc23)cc1 [compound 313, 4-(4-Tert-butylphenyl)-7-nitro-2,1,3-benzoxadiazole]",1 to 20,1 to 20,
"O=[N+]([O-])c1ccc(N2CCN(c3ncc(C(F)(F)F)cc3Cl)CC2)c2nonc12 [compound 315, 4-{4-[3-chloro-5-(trifluoromethyl)pyrindin-2-yl]piperazin-1-yl}-7-nitro-2,1,3-benzoxadiazole]",,< 1,
"O=S(=O)(Nc1ccc2cn[nH]c2c1)c1c(O)ccc2nonc12 [compound 339, 5-hydroxy-N-(1H-indazol-6-yl)2,1,3-benzoxadiazole-4-sulfonamide]",≥ 20,≥ 20,
"O=S(=O)(c1c(N2CCC(Oc3ccccc3C(F)(F)F)CC2)ccc2nonc12)N1CCC(Oc2ccccc2C(F)(F)F)CC1 [compound 340, 5-[4-(2-{trifluoromethyl}phenoxy)piperidin-1-yl]-4-{[4-(2-{trifluoromethyl}phenoxy)piperidin-1-yl]sulfonyl}-2,1,3-benzoxadiazole]",≥ 20,≥ 20,
"COc1cc(NS(=O)(=O)c2ccc(Cl)c3nonc23)c(OC)cc1Cl [compound 341, 7-chloro-N-(4-chloro-2,5-dimethoxyphenyl)-2,1,3-benzoxadiazole-4-sulfonamide]",1 to 20,≥ 20,
"COc1cc(Nc2ccc(S(=O)(=O)Nc3cc(OC)c(Cl)cc3OC)c3nonc23)c(OC)cc1Cl [compound 342, N-(4-chloro-2,5-dimethoxyphenyl)-7-([4-chloro-2,5-dimethoxyphenyl]amino)-2,1,3-benzoxadiazole-4-sulfonamide]",,1 to 20,1 to 20
"COc1cc(NS(=O)(=O)c2c(Cl)ccc3nonc23)c(OC)cc1Cl [compound 343, 5-chloro-N-(4-chloro-2,5-dimethoxyphenyl)-2,1,3-benzoxadiazole-4-sulfonamide]",1 to 20,≥ 20,
"COc1cc(Nc2ccc3nonc3c2S(=O)(=O)Nc2cc(OC)c(Cl)cc2OC)c(OC)cc1Cl [compound 344, N-(4-chloro-2,5-dimethoxyphenyl)-5-([4-chloro-2,5-dimethoxyphenyl]amino)-2,1,3-benzoxadiazole-4-sulfonamide]",≥ 20,≥ 20,
